In the CheMixHub viscosity set:

Experiment: xn = mol fraction of the nth substance listed

CCCCCCCCCCCCCCCCCC(=O)O + CN1CCC[C@H]1c1cccnc1
viscosity [mPa·s], 101 kPa
Settings | x2 = 0.3991 | x2 = 0.4952 | x2 = 0.6034 | x2 = 0.6986 | x2 = 0.7961 | x2 = 0.8973
298.15 K | – | – | – | 21.18 | 14.22 | 7.79
323.15 K | 26.04 | 18.6 | 12.3 | 8.571 | 6.045 | 4.003

CCC(C)O (stereo unspecified) + CN(C)C=O
viscosity [mPa·s], 101 kPa
Settings | 298.15 K | 303.15 K | 308.15 K | 313.15 K
x2 = 0.085 | 2.48 | 2.11 | 1.78 | 1.52
x2 = 0.164 | 2.2 | 1.83 | 1.57 | 1.35
x2 = 0.2446 | 2 | 1.65 | 1.41 | 1.23
x2 = 0.3503 | 1.8 | 1.5 | 1.29 | 1.13
x2 = 0.4398 | 1.65 | 1.39 | 1.19 | 1.07
x2 = 0.5035 | 1.51 | – | – | –
x2 = 0.5738 | 1.44 | 1.23 | 1.08 | 1.01
x2 = 0.6512 | 1.32 | 1.14 | 1.02 | 0.97
x2 = 0.7515 | 1.17 | 1.03 | 0.93 | 0.91
x2 = 0.841 | 1.03 | 0.93 | 0.85 | 0.86
x2 = 0.9435 | 0.88 | 0.82 | 0.76 | 0.79

CCCCn1cc[n+](C)c1.F[B-](F)(F)F + CN(C)C=O
101.33 kPa
Settings | viscosity [mPa·s]
293.15 K, x1 = 0.24 | 8.99
293.15 K, x1 = 0.83 | 76.67
298.15 K, x1 = 0.335 | 6.371
298.15 K, x1 = 0.34 | 8.92
298.15 K, x1 = 0.3986 | 7.783
298.15 K, x1 = 0.8976 | 78.41
298.15 K, x1 = 0.94 | 88.43
303.15 K, x1 = 0.43 | 8.05
303.15 K, x1 = 0.94 | 74.19
308.15 K, x1 = 0.55 | 9.58

Cc1ccc(O)cc1 + CN(C)C=O
viscosity [mPa·s], 101 kPa
Settings | 303.15 K | 308.15 K | 313.15 K | 318.15 K
x1 = 0.0758 | 0.908 | 0.787 | 0.769 | 0.732
x1 = 0.1553 | 1.098 | 0.988 | 0.913 | 0.845
x1 = 0.2404 | 1.444 | 1.208 | – | 1.087
x1 = 0.3298 | 1.832 | 1.611 | 1.465 | 1.339
x1 = 0.4247 | 2.452 | 2.165 | 1.952 | 1.755
x1 = 0.5155 | – | 2.886 | – | –
x1 = 0.5255 | 3.351 | – | – | 2.273
x1 = 0.5256 | – | – | 2.562 | –
x1 = 0.6327 | 4.534 | 3.905 | 3.375 | 2.954
x1 = 0.7472 | 6.256 | 5.298 | 4.489 | 3.852
x1 = 0.8692 | 7.994 | 6.386 | 5.777 | 4.485

CC(O)CC(C)(C)O (stereo unspecified) + CN(C)c1ccccc1
viscosity [mPa·s], 101 kPa
Settings | x1 = 0.0947 | x1 = 0.1893 | x1 = 0.2866 | x1 = 0.3878 | x1 = 0.4988 | x1 = 0.5875 | x1 = 0.6895 | x1 = 0.7899 | x1 = 0.8859
308.15 K | 1.042 | 1.107 | 1.216 | 1.395 | 1.761 | 2.037 | 2.999 | 5.285 | 9.275
318.15 K | 0.8643 | 0.9274 | 1.015 | 1.185 | 1.416 | 1.688 | 2.505 | 4.534 | 8.117

C1CC[NH2+]C1.CCCCCCCC(=O)[O-] + CO
viscosity [mPa·s], 101 kPa
Settings | x1 = 0.1021 | x1 = 0.2025 | x1 = 0.3023 | x1 = 0.3896 | x1 = 0.5185 | x1 = 0.5972 | x1 = 0.7086 | x1 = 0.7895 | x1 = 0.844
293.15 K | 4.58 | 7.4 | 10.73 | 14.46 | 22.6 | 28 | 38.68 | 47.37 | 55.2
298.15 K | 3.6 | 6.53 | 10.37 | 13.1 | 19.44 | 24.57 | 33.84 | 41.18 | 48.18
303.15 K | 3.6 | 6 | 8.9 | 10.82 | 15.84 | 20.9 | 27.67 | 34.45 | 38.6
308.15 K | 4.08 | 5.69 | 8.64 | 10.07 | 15.33 | 19.02 | 24.21 | 29.56 | 33.63
313.15 K | 4 | 5.4 | 7.17 | 9.15 | 13.26 | 15.69 | 21.37 | 25.39 | 28.41

CCC(C)O (stereo unspecified) + CO
298.15 K, 101.33 kPa
Settings | viscosity [mPa·s]
x2 = 0.1153 | 2.681
x2 = 0.2124 | 2.341
x2 = 0.2972 | 2.063
x2 = 0.3974 | 1.765
x2 = 0.4714 | 1.563
x2 = 0.5959 | 1.263
x2 = 0.671 | 1.102
x2 = 0.8045 | 0.852
x2 = 0.8927 | 0.711

Cc1cccc(C)c1 + CO
293.15 K, 101 kPa
Settings | viscosity [mPa·s]
x2 = 0.2 | 0.622
x2 = 0.4 | 0.626
x2 = 0.5 | 0.646
x2 = 0.6 | 0.662
x2 = 0.7 | 0.654
x2 = 0.8 | 0.641

O=S1(=O)CCCC1 + CO
viscosity [mPa·s], 101 kPa
Settings | 298.15 K | 303.15 K | 308.15 K | 313.15 K | 323.15 K
x1 = 0.0496 | 0.607 | 0.569 | – | 0.498 | 0.437
x1 = 0.068 | – | 0.5856 | 0.5474 | 0.5133 | –
x1 = 0.0966 | 0.694 | 0.648 | – | 0.565 | 0.495
x1 = 0.1103 | – | 0.6512 | 0.6081 | 0.5686 | –
x1 = 0.1632 | 0.814 | 0.757 | – | 0.661 | 0.579
x1 = 0.1658 | – | 0.756 | 0.7042 | 0.6574 | –
x1 = 0.2274 | – | 0.8999 | 0.8344 | 0.7787 | –
x1 = 0.2282 | 0.985 | 0.916 | – | 0.792 | 0.686
x1 = 0.306 | 1.227 | 1.137 | – | 0.986 | 0.867
x1 = 0.3087 | – | 1.13 | 1.047 | 0.9753 | –
x1 = 0.3969 | 1.587 | 1.458 | – | 1.238 | 1.062
x1 = 0.4056 | – | 1.495 | 1.378 | 1.279 | –
x1 = 0.5037 | 2.208 | 2.022 | – | 1.687 | 1.467
x1 = 0.5284 | – | 2.142 | 1.96 | 1.803 | –
x1 = 0.6337 | 3.233 | 2.982 | – | 2.466 | 2.125
x1 = 0.6422 | – | 3.025 | 2.753 | 2.515 | –
x1 = 0.7703 | – | 4.551 | 4.1 | 3.722 | –
x1 = 0.7949 | 5.516 | 5.126 | – | 4.165 | 3.476
